Results: patent US20090215778A1, “Alpha-substituted Arylmethyl Piperazine Pyrazolo [1,5-alpha]Pyrimidine Amide Derivatives” (priority 2007, published 2009)

Columns and labels:
HIV-1, NL4-3 strain = assay: Virus infection assay (virus entry and single-cycle infection); format: cell-based; conditions: Human immunodeficiency virus 1, NL43, TZM-b1, read-out: Nl4
Outline: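 Single-cycle entry/infection read-out: β-galactosidase chemiluminescence measured one day after infection. Compounds were present during a 4 h, 37 °C exposure of TZM-b1 reporter cells to NL4-3 virus at MOI 0.01 plus DEAE-dextran (80 μg/mL final), followed by addition of complete medium.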

[1] = target: T1, HIV Env six-helix bundle (6HB) structure (Human immunodeficiency virus type 1 group M subtype B, UniProt P04579); assay: Six-helix bundle (6HB) assay; format: cell-based, HIV-1 (strain RF)
T1 construct: H9 cells chronically infected with HIV-1 (H9/HIV-1RF); endogenous in cells; host or cells: H9 cells chronically infected with HIV-1 strain RF (Env is made from the virus in the infected cells, not by transfection)
Outline: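 Flow cytometry measured binding of a six-helix-bundle-specific polyclonal antibody, detected with PE-labelled secondary at 4 °C for 45 min, on H9/HIV-1 RF chronically infected cells. Compound was given 30 min at 37 °C before 1 μg/mL soluble CD4 induction for 1 h. Inhibition appears as reduced fluorescence.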

T1 sequence (P04579 32-519): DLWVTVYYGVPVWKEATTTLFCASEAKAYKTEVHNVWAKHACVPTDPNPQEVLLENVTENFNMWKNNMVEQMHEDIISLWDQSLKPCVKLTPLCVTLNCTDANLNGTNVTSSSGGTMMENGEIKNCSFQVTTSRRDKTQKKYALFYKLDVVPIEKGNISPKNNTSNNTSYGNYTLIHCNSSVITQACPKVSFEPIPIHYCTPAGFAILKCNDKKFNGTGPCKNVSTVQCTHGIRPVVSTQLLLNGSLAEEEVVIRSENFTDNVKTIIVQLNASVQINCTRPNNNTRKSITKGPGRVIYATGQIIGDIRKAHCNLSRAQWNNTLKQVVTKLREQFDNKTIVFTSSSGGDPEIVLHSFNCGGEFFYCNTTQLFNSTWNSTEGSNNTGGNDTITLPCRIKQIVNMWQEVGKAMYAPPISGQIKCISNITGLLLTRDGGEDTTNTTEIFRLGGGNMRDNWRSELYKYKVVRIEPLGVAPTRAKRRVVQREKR
T1 sequence (P04579 520-865): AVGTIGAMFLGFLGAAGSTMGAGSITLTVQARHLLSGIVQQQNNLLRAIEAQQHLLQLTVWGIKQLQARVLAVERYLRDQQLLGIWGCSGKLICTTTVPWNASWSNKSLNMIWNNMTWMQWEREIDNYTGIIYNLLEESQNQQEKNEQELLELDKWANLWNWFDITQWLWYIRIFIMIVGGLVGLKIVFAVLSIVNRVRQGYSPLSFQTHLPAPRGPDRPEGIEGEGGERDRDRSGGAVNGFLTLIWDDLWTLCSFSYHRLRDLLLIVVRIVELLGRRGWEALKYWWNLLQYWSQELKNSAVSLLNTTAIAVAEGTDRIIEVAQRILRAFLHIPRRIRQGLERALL

| Structure (SMILES) | IC50 (HIV-1, NL4-3 strain) | IC50 [1] |
| --- | --- | --- |
| CCc1ccc(-c2nc3c(C(=O)N4CCN([C@@H](CO)c5ccccc5)C[C@H]4C)cnn3c(C(F)(F)F)c2C)cc1 [methanone, [5-(4-ethylphenyl)-6-methyl-7-(trifluoromethyl)pyrazolo[1,5-α]pyrimidin-3-yl][(2R)-4-[(1R)-2-hydroxy-1-phenylethyl]-2-methyl-1-piperazinyl]-] | < 1000 nM | < 1000 nM |
| C=CCN(C)CC(c1ccccc1)N1CCN(C(=O)c2cnn3c(C(F)(F)F)c(C)c(-c4ccc(OC)cc4)nc23)[C@H](C)C1 (stereo partly drawn) [methanone, [5-(4-methoxyphenyl)-6-methyl-7-(trifluoromethyl)pyrazolo[1,5-α]pyrimidin-3-yl][(2R)-2-methyl-4-[2-(methyl-2-propen-1-ylamino)-1-phenylethyl]-1-piperazinyl]] | < 1000 nM | < 1000 nM |
| CNCC(c1ccccc1)N1CCN(C(=O)c2cnn3c(C(F)(F)F)c(C)c(-c4ccc(OC)cc4)nc23)[C@H](C)C1 (stereo partly drawn) [methanone, [5-(4-methoxyphenyl)-6-methyl-7-(trifluoromethyl)pyrazolo[1,5-α]pyrimidin-3-yl][(2R)-2-methyl-4-[2-(methylamino)-1-phenylethyl]-1-piperazinyl]-] | < 1000 nM | < 1000 nM |
| COc1ccc(-c2nc3c(C(=O)N4CCN([C@H](C)c5cc(F)cc(F)c5F)C[C@H]4C)cnn3c(C(F)(F)F)c2C)cc1 [methanone, [5-(4-methoxyphenyl)-6-methyl-7-(trifluoromethyl)pyrazolo[1,5-α]pyrimidin-3-yl][(2R)-2-methyl-4-[(1R)-1-(2,3,5-trifluorophenyl)ethyl]-1-piperazinyl]-] | < 1000 nM | < 1000 nM |
| COc1ccc(-c2nc3c(C(=O)N4CCN([C@H](C)c5cc(F)c(F)c(F)c5)C[C@H]4C)cnn3c(C(F)(F)F)c2C)cc1 [methanone, [5-(4-methoxyphenyl)-6-methyl-7-(trifluoromethyl)pyrazolo[1,5-α]pyrimidin-3-yl][(2R)-2-methyl-4-[(1R)-1-(3,4,5-trifluorophenyl)ethyl]-1-piperazinyl]-] | < 1000 nM | < 1000 nM |
| COc1ccc(-c2nc3c(C(=O)N4CCN([C@H](C)c5ccccc5)C[C@H]4C)cnn3c(C(F)(F)F)c2C)cc1 [methanone, [5-(4-methoxyphenyl)-6-methyl-7-(trifluoromethyl)pyrazolo[1,5-α]pyrimidin-3-yl][(2R)-2-methyl-4-[(1R)-1-phenylethyl]-1-piperazinyl]-] | < 1000 nM | < 1000 nM |
| COc1ccc(-c2nc3c(C(=O)N4CCN([C@H](c5ccccc5)C(F)(F)F)C[C@H]4C)cnn3c(C(F)(F)F)c2C)cc1 [methanone, [5-(4-methoxyphenyl)-6-methyl-7-(trifluoromethyl)pyrazolo[1,5-α]pyrimidin-3-yl][(2R)-2-methyl-4-[(1R)-2,2,2-trifluoro-1-phenylethyl]-1-piperazinyl]-] | < 1000 nM | < 1000 nM |
| COc1ccc(-c2nc3c(C(=O)N4CCN([C@@H](C)c5ccn(C)n5)C[C@H]4C)cnn3c(C(F)(F)F)c2C)cc1 [methanone, [5-(4-methoxyphenyl)-6-methyl-7-(trifluoromethyl)pyrazolo[1,5-α]pyrimidin-3-yl][(2R)-2-methyl-4-[(1S)-1-(1-methyl-1H-pyrazol-3-yl)ethyl]-1-piperazinyl]-] | < 1000 nM | 1100 to 10000 nM |
| COc1ccc(-c2nc3c(C(=O)N4CCN([C@@H](C)c5cc(F)cc(F)c5F)C[C@H]4C)cnn3c(C(F)(F)F)c2C)cc1 [methanone, [5-(4-methoxyphenyl)-6-methyl-7-(trifluoromethyl)pyrazolo[1,5-α]pyrimidin-3-yl][(2R)-2-methyl-4-[(1S)-1-(2,3,5-trifluorophenyl)ethyl]-1-piperazinyl]-] | < 1000 nM | < 1000 nM |
| COc1ccc(-c2nc3c(C(=O)N4CCN([C@@H](C)c5ccccn5)C[C@H]4C)cnn3c(C(F)(F)F)c2C)cc1 [methanone, [5-(4-methoxyphenyl)-6-methyl-7-(trifluoromethyl)pyrazolo[1,5-α]pyrimidin-3-yl][(2R)-2-methyl-4-[(1S)-1-(2-pyridinyl)ethyl]-1-piperazinyl]-] | < 1000 nM | < 1000 nM |
| COc1ccc(-c2nc3c(C(=O)N4CCN([C@@H](C)c5nccs5)C[C@H]4C)cnn3c(C(F)(F)F)c2C)cc1 [methanone, [5-(4-methoxyphenyl)-6-methyl-7-(trifluoromethyl)pyrazolo[1,5-α]pyrimidin-3-yl][(2R)-2-methyl-4-[(1S)-1-(2-thiazolyl)ethyl]-1-piperazinyl]-] | < 1000 nM | < 1000 nM |
| COc1ccc(-c2nc3c(C(=O)N4CCN([C@@H](C)c5cccs5)C[C@H]4C)cnn3c(C(F)(F)F)c2C)cc1 [methanone, [5-(4-methoxyphenyl)-6-methyl-7-(trifluoromethyl)pyrazolo[1,5-α]pyrimidin-3-yl][(2R)-2-methyl-4-[(1S)-1-(2-thienyl)ethyl]-1-piperazinyl]-] | < 1000 nM | < 1000 nM |
| COc1ccc(-c2nc3c(C(=O)N4CCN([C@@H](C)c5cc(F)c(F)c(F)c5)C[C@H]4C)cnn3c(C(F)(F)F)c2C)cc1 [methanone, [5-(4-methoxyphenyl)-6-methyl-7-(trifluoromethyl)pyrazolo[1,5-α]pyrimidin-3-yl][(2R)-2-methyl-4-[(1S)-1-(3,4,5-trifluorophenyl)ethyl]-1-piperazinyl]-] | < 1000 nM | < 1000 nM |
| COc1ccc(-c2nc3c(C(=O)N4CCN([C@@H](C)c5cccnc5)C[C@H]4C)cnn3c(C(F)(F)F)c2C)cc1 [methanone, [5-(4-methoxyphenyl)-6-methyl-7-(trifluoromethyl)pyrazolo[1,5-α]pyrimidin-3-yl][(2R)-2-methyl-4-[(1S)-1-(3-pyridinyl)ethyl]-1-piperazinyl]-] | < 1000 nM | < 1000 nM |
| COc1ccc(-c2nc3c(C(=O)N4CCN([C@@H](C)c5ccncc5)C[C@H]4C)cnn3c(C(F)(F)F)c2C)cc1 [methanone, [5-(4-methoxyphenyl)-6-methyl-7-(trifluoromethyl)pyrazolo[1,5-α]pyrimidin-3-yl][(2R)-2-methyl-4-[(1S)-1-(4-pyridinyl)ethyl]-1-piperazinyl]-] | < 1000 nM | < 1000 nM |
| COc1ccc(-c2nc3c(C(=O)N4CCN([C@@H](C)c5ccc(S(C)(=O)=O)cc5)C[C@H]4C)cnn3c(C(F)(F)F)c2C)cc1 [methanone, [5-(4-methoxyphenyl)-6-methyl-7-(trifluoromethyl)pyrazolo[1,5-α]pyrimidin-3-yl][(2R)-2-methyl-4-[(1S)-1-[4-(methylsulfonyl)phenyl]ethyl]-1-piperazinyl]-] | 1100 to 10000 nM | 1100 to 10000 nM |
| COc1ccc(-c2nc3c(C(=O)N4CCN([C@@H](C)c5ccccc5)C[C@H]4C)cnn3c(C(F)(F)F)c2C)cc1 [methanone, [5-(4-methoxyphenyl)-6-methyl-7-(trifluoromethyl)pyrazolo[1,5-α]pyrimidin-3-yl][(2R)-2-methyl-4-[(1S)-1-phenylethyl]-1-piperazinyl]-] | < 1000 nM | < 1000 nM |
| COc1ccc(-c2nc3c(C(=O)N4CCN([C@@H](c5ccccc5)C(F)(F)F)C[C@H]4C)cnn3c(C(F)(F)F)c2C)cc1 [methanone, [5-(4-methoxyphenyl)-6-methyl-7-(trifluoromethyl)pyrazolo[1,5-α]pyrimidin-3-yl][(2R)-2-methyl-4-[(1S)-2,2,2-trifluoro-1-phenylethyl]-1-piperazinyl]-] | < 1000 nM | < 1000 nM |
| COc1ccc(-c2nc3c(C(=O)N4CCN([C@@H](CO)c5ccccc5)C[C@H]4C)cnn3c(C(F)(F)F)c2F)cc1 [methanone, [6-fluoro-5-(4-methoxyphenyl)-7-(trifluoromethyl)pyrazolo[1,5-α]pyrimidin-3-yl][(2R)-4-[(1R)-2-hydroxy-1-phenylethyl]-2-methyl-1-piperazinyl]-] | < 1000 nM | < 1000 nM |
| COc1ccc(-c2nc3c(C(=O)N4CCN([C@@H](CO)c5ccccc5)C[C@H]4C)cnn3c(N(C)C)c2F)cc1 [methanone, [7-(dimethylamino)-6-fluoro-5-(4-methoxyphenyl)pyrazolo[1,5-α]pyrimidin-3-yl][(2R)-4-[(1R)-2-hydroxy-1-phenylethyl]-2-methyl-1-piperazinyl]-] | < 1000 nM | < 1000 nM |
| COc1ccc(-c2nc3c(C(=O)N4CCN(C(CN)c5ccccc5)C[C@H]4C)cnn3c(C(F)(F)F)c2C)cc1 (stereo partly drawn) [methanone, [(2R)-4-(2-amino-1-phenylethyl)-2-methyl-1-piperazinyl][5-(4-methoxyphenyl)-6-methyl-7-(trifluoromethyl)pyrazolo[1,5-α]pyrimidin-3-yl]-] | < 1000 nM | < 1000 nM |
| COc1ccc(-c2nc3c(C(=O)N4CCN(C(c5ccccc5)C(C)O)C[C@H]4C)cnn3c(C(F)(F)F)c2C)cc1 (stereo partly drawn) [methanone, [(2R)-4-(2-hydroxy-1-phenylpropyl)-2-methyl-1-piperazinyl][5-(4-methoxyphenyl)-6-methyl-7-(trifluoromethyl)pyrazolo[1,5-α]pyrimidin-3-yl]-] | < 1000 nM | < 1000 nM |
| COc1ccc(-c2nc3c(C(=O)N4CCN(C(c5ccccc5)C(C)(C)O)C[C@H]4C)cnn3c(C(F)(F)F)c2C)cc1 (stereo partly drawn) [methanone, [(2R)-4-(2-hydroxy-2-methyl-1-phenylpropyl)-2-methyl-1-piperazinyl][5-(4-methoxyphenyl)-6-methyl-7-(trifluoromethyl)pyrazolo[1,5-α]pyrimidin-3-yl]-] | < 1000 nM | < 1000 nM |
